Source: PubChem BioAssay (NCI)
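Values below derive from 48-hour exposures of cells grown in 96-well plates, with endpoints linearly interpolated between the two concentrations bracketing the appropriate inhibition level. TGI marks complete inhibition of growth.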

What was measured:
Assay in all cases: NCI-60 cell line screen, 48 h
M14 melanoma = tested on: M14 melanoma
MDA-MB-435 = tested on: MDA-MB-435
COLO 205 colon = tested on: COLO 205 colon
SN12C renal = tested on: SN12C renal
NCI/ADR-RES ovarian = tested on: NCI/ADR-RES ovarian
HT29 colon = tested on: HT29 colon
SNB-19 CNS = tested on: SNB-19 CNS
UACC-62 melanoma = tested on: UACC-62 melanoma
OVCAR-5 ovarian = tested on: OVCAR-5 ovarian
KM12 colon = tested on: KM12 colon
SR leukemia = tested on: SR leukemia
NCI-H23 lung = tested on: NCI-H23 lung
MDA-MB-231 breast = tested on: MDA-MB-231 breast
786-0 renal = tested on: 786-0 renal
HCC-2998 colon = tested on: HCC-2998 colon
NCI-H226 lung = tested on: NCI-H226 lung
MDA-N = tested on: MDA-N
SK-MEL-28 melanoma = tested on: SK-MEL-28 melanoma
LOX IMVI melanoma = tested on: LOX IMVI melanoma
NCI-H460 lung = tested on: NCI-H460 lung
ACHN renal = tested on: ACHN renal
TK-10 renal = tested on: TK-10 renal
HCT-15 colon = tested on: HCT-15 colon
OVCAR-4 ovarian = tested on: OVCAR-4 ovarian
NCI-H522 lung = tested on: NCI-H522 lung
K-562 leukemia = tested on: K-562 leukemia
MCF7 breast = tested on: MCF7 breast
EKVX NSCLC = tested on: EKVX NSCLC
HOP-92 NSCLC = tested on: HOP-92 NSCLC
OVCAR-8 ovarian = tested on: OVCAR-8 ovarian
MALME-3M melanoma = tested on: MALME-3M melanoma
A549 NSCLC = tested on: A549 NSCLC
UO-31 renal = tested on: UO-31 renal
HS 578T breast = tested on: HS 578T breast
BT-549 breast = tested on: BT-549 breast
PC-3 prostate = tested on: PC-3 prostate
SF-268 CNS = tested on: SF-268 CNS
MOLT-4 leukemia = tested on: MOLT-4 leukemia
UACC-257 melanoma = tested on: UACC-257 melanoma
CCRF-CEM leukemia = tested on: CCRF-CEM leukemia
SW-620 colon = tested on: SW-620 colon
SNB-75 CNS = tested on: SNB-75 CNS
CAKI-1 renal = tested on: CAKI-1 renal
U251 CNS = tested on: U251 CNS
OVCAR-3 ovarian = tested on: OVCAR-3 ovarian
SF-295 CNS = tested on: SF-295 CNS
IGROV1 ovarian = tested on: IGROV1 ovarian
SK-OV-3 ovarian = tested on: SK-OV-3 ovarian
HCT-116 colon = tested on: HCT-116 colon
HOP-62 NSCLC = tested on: HOP-62 NSCLC
RXF 393 renal = tested on: RXF 393 renal
SF-539 CNS = tested on: SF-539 CNS
SK-MEL-5 melanoma = tested on: SK-MEL-5 melanoma
DU-145 prostate = tested on: DU-145 prostate
T-47D breast = tested on: T-47D breast
RPMI-8226 leukemia = tested on: RPMI-8226 leukemia
SK-MEL-2 melanoma = tested on: SK-MEL-2 melanoma
HL-60(TB) leukemia = tested on: HL-60(TB) leukemia
A498 renal = tested on: A498 renal

Measured: TGI

CN(/N=C/C=N/N(C)C1=NCCCN1)C1=NCCCN1
> 100 µM: M14 melanoma | MDA-MB-435 | COLO 205 colon | SN12C renal | NCI/ADR-RES ovarian | HT29 colon | SNB-19 CNS | UACC-62 melanoma | OVCAR-5 ovarian | KM12 colon | SR leukemia | NCI-H23 lung | MDA-MB-231 breast | 786-0 renal | HCC-2998 colon | NCI-H226 lung | MDA-N | SK-MEL-28 melanoma | LOX IMVI melanoma | NCI-H460 lung | ACHN renal | TK-10 renal | HCT-15 colon | OVCAR-4 ovarian | NCI-H522 lung | K-562 leukemia | MCF7 breast | EKVX NSCLC | HOP-92 NSCLC | OVCAR-8 ovarian | MALME-3M melanoma | A549 NSCLC | UO-31 renal | HS 578T breast | BT-549 breast | PC-3 prostate | SF-268 CNS | MOLT-4 leukemia | UACC-257 melanoma | CCRF-CEM leukemia | SW-620 colon | SNB-75 CNS | CAKI-1 renal | U251 CNS | OVCAR-3 ovarian | SF-295 CNS | IGROV1 ovarian | SK-OV-3 ovarian | HCT-116 colon | HOP-62 NSCLC | RXF 393 renal | SF-539 CNS | SK-MEL-5 melanoma

CC(C)OC(=O)C1(C(C)C)CCc2ccc(C(=O)CCC(=O)O)cc21 (stereo not drawn)
> 100 µM: M14 melanoma | COLO 205 colon | SN12C renal | NCI/ADR-RES ovarian | HT29 colon | SNB-19 CNS | UACC-62 melanoma | OVCAR-5 ovarian | KM12 colon | SR leukemia | NCI-H23 lung | MDA-MB-231 breast | 786-0 renal | HCC-2998 colon | NCI-H226 lung | MDA-N | SK-MEL-28 melanoma | LOX IMVI melanoma | DU-145 prostate | NCI-H460 lung | ACHN renal | TK-10 renal | HCT-15 colon | OVCAR-4 ovarian | NCI-H522 lung | K-562 leukemia | MCF7 breast | EKVX NSCLC | OVCAR-8 ovarian | MALME-3M melanoma | A549 NSCLC | UO-31 renal | HS 578T breast | BT-549 breast | T-47D breast | PC-3 prostate | SF-268 CNS | MOLT-4 leukemia | UACC-257 melanoma | CCRF-CEM leukemia | SW-620 colon | SNB-75 CNS | RPMI-8226 leukemia | CAKI-1 renal | U251 CNS | SK-MEL-2 melanoma | SF-295 CNS | IGROV1 ovarian | SK-OV-3 ovarian | HCT-116 colon | HOP-62 NSCLC | RXF 393 renal | SF-539 CNS | HL-60(TB) leukemia | SK-MEL-5 melanoma

COc1cc(NCCC(=O)O)c2ncccc2c1
> 100 µM: M14 melanoma | MDA-MB-435 | SN12C renal | NCI/ADR-RES ovarian | HT29 colon | SNB-19 CNS | UACC-62 melanoma | OVCAR-5 ovarian | SR leukemia | NCI-H23 lung | MDA-MB-231 breast | 786-0 renal | NCI-H226 lung | MDA-N | SK-MEL-28 melanoma | LOX IMVI melanoma | NCI-H460 lung | ACHN renal | TK-10 renal | HCT-15 colon | OVCAR-4 ovarian | NCI-H522 lung | K-562 leukemia | EKVX NSCLC | HOP-92 NSCLC | OVCAR-8 ovarian | MALME-3M melanoma | A549 NSCLC | UO-31 renal | HS 578T breast | BT-549 breast | T-47D breast | PC-3 prostate | SF-268 CNS | MOLT-4 leukemia | UACC-257 melanoma | CCRF-CEM leukemia | SW-620 colon | U251 CNS | SK-MEL-2 melanoma | OVCAR-3 ovarian | SF-295 CNS | IGROV1 ovarian | HCT-116 colon | A498 renal | HOP-62 NSCLC | RXF 393 renal | HL-60(TB) leukemia | SK-MEL-5 melanoma

CCOC(=O)N/N=C(\CC)NO
> 100 µM: MDA-MB-435 | COLO 205 colon | SN12C renal | NCI/ADR-RES ovarian | HT29 colon | SNB-19 CNS | UACC-62 melanoma | OVCAR-5 ovarian | KM12 colon | SR leukemia | NCI-H23 lung | MDA-MB-231 breast | 786-0 renal | HCC-2998 colon | NCI-H226 lung | MDA-N | SK-MEL-28 melanoma | LOX IMVI melanoma | DU-145 prostate | NCI-H460 lung | ACHN renal | TK-10 renal | HCT-15 colon | OVCAR-4 ovarian | NCI-H522 lung | K-562 leukemia | MCF7 breast | EKVX NSCLC | HOP-92 NSCLC | OVCAR-8 ovarian | MALME-3M melanoma | A549 NSCLC | UO-31 renal | HS 578T breast | BT-549 breast | T-47D breast | PC-3 prostate | SF-268 CNS | MOLT-4 leukemia | UACC-257 melanoma | CCRF-CEM leukemia | SW-620 colon | RPMI-8226 leukemia | CAKI-1 renal | U251 CNS | SK-MEL-2 melanoma | OVCAR-3 ovarian | IGROV1 ovarian | SK-OV-3 ovarian | HCT-116 colon | A498 renal | HOP-62 NSCLC | RXF 393 renal | SF-539 CNS | HL-60(TB) leukemia | SK-MEL-5 melanoma
